{"source": "paper PMC8903829", "about": "(eLife, 2022)", "experiment_in_all_cases": "Automated patch-clamp, patient-identified variant in Expi293F cells", "type_in_all_cases": "cell-based", "key": {"hNaV1.6 R850Q": {"target": "T1, hNaV1.6 R850Q (Homo sapiens, UniProt Q9UQD0, R850Q)", "T1 construct": "expression vector containing the full-length cDNA coding for specific human and mouse sodium channel α-subunit; expressed in transfected cells; host or cells: Expi293F (transient, tetracycline-induced, pcDNA4/TO)", "T1 sequence (Q9UQD0 whole entry R850Q)": "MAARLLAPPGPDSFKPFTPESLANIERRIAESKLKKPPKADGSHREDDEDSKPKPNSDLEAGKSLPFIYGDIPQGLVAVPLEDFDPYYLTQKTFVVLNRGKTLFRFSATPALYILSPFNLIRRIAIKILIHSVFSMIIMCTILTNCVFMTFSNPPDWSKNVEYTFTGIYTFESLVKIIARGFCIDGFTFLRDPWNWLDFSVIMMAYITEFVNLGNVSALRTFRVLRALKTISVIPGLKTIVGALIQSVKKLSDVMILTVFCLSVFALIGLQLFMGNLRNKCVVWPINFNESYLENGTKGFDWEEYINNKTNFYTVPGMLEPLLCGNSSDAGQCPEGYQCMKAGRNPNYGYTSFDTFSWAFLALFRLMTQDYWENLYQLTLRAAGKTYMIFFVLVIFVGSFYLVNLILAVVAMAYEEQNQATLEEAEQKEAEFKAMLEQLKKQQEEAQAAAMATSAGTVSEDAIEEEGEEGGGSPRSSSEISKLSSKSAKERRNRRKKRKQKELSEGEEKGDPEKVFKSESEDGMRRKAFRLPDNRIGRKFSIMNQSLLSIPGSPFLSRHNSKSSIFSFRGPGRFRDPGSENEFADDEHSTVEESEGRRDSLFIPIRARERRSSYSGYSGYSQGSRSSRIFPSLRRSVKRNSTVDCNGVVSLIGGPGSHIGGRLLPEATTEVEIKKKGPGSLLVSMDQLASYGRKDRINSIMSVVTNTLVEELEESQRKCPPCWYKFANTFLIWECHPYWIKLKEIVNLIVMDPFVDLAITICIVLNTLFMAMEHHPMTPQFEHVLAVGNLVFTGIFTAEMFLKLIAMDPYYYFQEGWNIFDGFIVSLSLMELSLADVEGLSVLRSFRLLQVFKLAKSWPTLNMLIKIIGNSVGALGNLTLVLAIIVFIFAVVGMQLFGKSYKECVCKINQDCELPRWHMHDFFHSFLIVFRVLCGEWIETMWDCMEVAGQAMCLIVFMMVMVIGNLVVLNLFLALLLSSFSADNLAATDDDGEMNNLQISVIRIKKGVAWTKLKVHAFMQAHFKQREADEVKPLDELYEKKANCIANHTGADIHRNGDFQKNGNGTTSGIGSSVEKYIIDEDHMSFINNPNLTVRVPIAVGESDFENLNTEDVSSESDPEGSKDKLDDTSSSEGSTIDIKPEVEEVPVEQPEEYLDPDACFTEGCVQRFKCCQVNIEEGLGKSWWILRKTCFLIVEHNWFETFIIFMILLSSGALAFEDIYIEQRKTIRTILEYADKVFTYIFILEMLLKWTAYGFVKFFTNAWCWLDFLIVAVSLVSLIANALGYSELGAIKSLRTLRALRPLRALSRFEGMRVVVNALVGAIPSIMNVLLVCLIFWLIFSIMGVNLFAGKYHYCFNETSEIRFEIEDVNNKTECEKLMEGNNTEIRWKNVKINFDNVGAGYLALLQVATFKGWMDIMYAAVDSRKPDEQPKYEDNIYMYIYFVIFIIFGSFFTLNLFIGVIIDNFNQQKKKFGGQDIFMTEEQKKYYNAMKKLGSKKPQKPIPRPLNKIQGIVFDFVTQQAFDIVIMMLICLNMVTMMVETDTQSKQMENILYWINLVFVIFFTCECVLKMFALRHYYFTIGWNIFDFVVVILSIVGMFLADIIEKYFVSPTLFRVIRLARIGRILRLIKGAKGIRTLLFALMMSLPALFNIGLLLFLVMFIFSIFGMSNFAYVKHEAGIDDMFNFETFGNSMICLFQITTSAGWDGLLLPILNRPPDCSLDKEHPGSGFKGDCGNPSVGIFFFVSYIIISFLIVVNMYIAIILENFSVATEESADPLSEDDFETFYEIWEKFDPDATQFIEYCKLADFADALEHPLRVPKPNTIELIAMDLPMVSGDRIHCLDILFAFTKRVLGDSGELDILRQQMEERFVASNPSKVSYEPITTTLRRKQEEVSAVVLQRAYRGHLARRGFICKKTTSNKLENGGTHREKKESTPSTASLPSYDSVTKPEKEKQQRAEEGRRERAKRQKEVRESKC", "procedure": "(§1) For studies of mutant channels, cDNA plasmids in pcDNA4/TO Mammalian Expression Vector were transiently transfected into Expi293F cells stably expressing human FHF2b and human SCN1B subunit (polyclonal) background using ExpiFectamine 293 Transfection Kits (Gibco,Thermo Fisher Scientific CAT #: A14524). Induction was achieved using Tetracycline (Sigma Aldrich). Transfected cells were used in automated patch-clamp experiments 24 hours postinduction.\n(§2) Inorm(CPD)=(ICPD−Icontrol)/(ITTX−Icontrol)."}, "hNaV1.6 N1877S": {"target": "T2, hNaV1.6 N1877S (Homo sapiens, UniProt Q9UQD0, N1877S)", "T2 construct": "expression vector containing the full-length cDNA coding for specific human and mouse sodium channel α-subunit; expressed in transfected cells; host or cells: Expi293F (transient, tetracycline-induced, pcDNA4/TO)", "T2 sequence (Q9UQD0 whole entry N1877S)": "as the sequence (Q9UQD0 whole entry R850Q) above, with Q850R, N1877S counted along it", "procedure": "as §1, §2"}, "hNaV1.6 N1768D": {"target": "T3, hNaV1.6 N1768D (Homo sapiens, UniProt Q9UQD0, N1768D)", "T3 construct": "expression vector containing the full-length cDNA coding for specific human and mouse sodium channel α-subunit; expressed in transfected cells; host or cells: Expi293F (transient, tetracycline-induced, pcDNA4/TO)", "T3 sequence (Q9UQD0 whole entry N1768D)": "as the sequence (Q9UQD0 whole entry R850Q) above, with Q850R, N1768D counted along it", "procedure": "as §1, §2"}, "hNaV1.6 T767I": {"target": "T4, hNaV1.6 T767I (Homo sapiens, UniProt Q9UQD0, T767I)", "T4 construct": "expression vector containing the full-length cDNA coding for specific human and mouse sodium channel α-subunit; expressed in transfected cells; host or cells: Expi293F (transient, tetracycline-induced, pcDNA4/TO)", "T4 sequence (Q9UQD0 whole entry T767I)": "as the sequence (Q9UQD0 whole entry R850Q) above, with T767I, Q850R counted along it", "procedure": "as §1, §2"}, "hNaV1.6 I1327V": {"target": "T5, hNaV1.6 I1327V (Homo sapiens, UniProt Q9UQD0, I1327V)", "T5 construct": "expression vector containing the full-length cDNA coding for specific human and mouse sodium channel α-subunit; expressed in transfected cells; host or cells: Expi293F (transient, tetracycline-induced, pcDNA4/TO)", "T5 sequence (Q9UQD0 whole entry I1327V)": "as the sequence (Q9UQD0 whole entry R850Q) above, with Q850R, I1327V counted along it", "procedure": "as §1, §2"}, "hNaV1.6 R1872W": {"target": "T6, hNaV1.6 R1872W (Homo sapiens, UniProt Q9UQD0, R1872W)", "T6 construct": "expression vector containing the full-length cDNA coding for specific human and mouse sodium channel α-subunit; expressed in transfected cells; host or cells: Expi293F (transient, tetracycline-induced, pcDNA4/TO)", "T6 sequence (Q9UQD0 whole entry R1872W)": "as the sequence (Q9UQD0 whole entry R850Q) above, with Q850R, R1872W counted along it", "procedure": "as §1, §2"}, "hNaV1.6 R1617Q": {"target": "T7, hNaV1.6 R1617Q (Homo sapiens, UniProt Q9UQD0, R1617Q)", "T7 construct": "expression vector containing the full-length cDNA coding for specific human and mouse sodium channel α-subunit; expressed in transfected cells; host or cells: Expi293F (transient, tetracycline-induced, pcDNA4/TO)", "T7 sequence (Q9UQD0 whole entry R1617Q)": "as the sequence (Q9UQD0 whole entry R850Q) above, with Q850R, R1617Q counted along it", "procedure": "as §1, §2"}, "hNaV1.6 N1466K": {"target": "T8, hNaV1.6 N1466K (Homo sapiens, UniProt Q9UQD0, N1466K)", "T8 construct": "expression vector containing the full-length cDNA coding for specific human and mouse sodium channel α-subunit; expressed in transfected cells; host or cells: Expi293F (transient, tetracycline-induced, pcDNA4/TO)", "T8 sequence (Q9UQD0 whole entry N1466K)": "as the sequence (Q9UQD0 whole entry R850Q) above, with Q850R, N1466K counted along it", "parameters": "h1.6 -N1466K 145756, Mean: scale not given here", "procedure": "as §1, §2"}}}
{"smiles": "Cc1cc(S(=O)(=O)Nc2cscn2)c(F)cc1N(C)[C@H]1CCN(Cc2ccccc2)C1", "note": "[NBI-921352]", "values": [{"measurement": "IC50", "setting": "hNaV1.6 R850Q", "value": 21, "unit": "nM"}, {"measurement": "h1.6-R850Q 145756, Mean", "setting": "hNaV1.6 R850Q; -5 LogM", "value": 0.91}, {"measurement": "h1.6-R850Q 145756, Mean", "setting": "hNaV1.6 R850Q; -5.47716 LogM", "value": 0.88}, {"measurement": "h1.6-R850Q 145756, Mean", "setting": "hNaV1.6 R850Q; -5.95429 LogM", "value": 0.86}, {"measurement": "h1.6-R850Q 145756, Mean", "setting": "hNaV1.6 R850Q; -6.4318 LogM", "value": 0.83}, {"measurement": "h1.6-R850Q 145756, Mean", "setting": "hNaV1.6 R850Q; -6.91009 LogM", "value": 0.79}, {"measurement": "h1.6-R850Q 145756, Mean", "setting": "hNaV1.6 R850Q; -7.38722 LogM", "value": 0.58}, {"measurement": "h1.6-R850Q 145756, Mean", "setting": "hNaV1.6 R850Q; -7.85387 LogM", "value": 0.43}, {"measurement": "h1.6-R850Q 145756, Mean", "setting": "hNaV1.6 R850Q; -8.33 LogM", "value": 0.13}, {"measurement": "h1.6-N1877S 145756 norm, Mean", "setting": "hNaV1.6 N1877S; -5 LogM", "value": 0.94}, {"measurement": "h1.6-N1877S 145756 norm, Mean", "setting": "hNaV1.6 N1877S; -5.47716 LogM", "value": 0.93}, {"measurement": "h1.6-N1877S 145756 norm, Mean", "setting": "hNaV1.6 N1877S; -5.95429 LogM", "value": 0.88}, {"measurement": "h1.6-N1877S 145756 norm, Mean", "setting": "hNaV1.6 N1877S; -6.4318 LogM", "value": 0.84}, {"measurement": "h1.6-N1877S 145756 norm, Mean", "setting": "hNaV1.6 N1877S; -6.91009 LogM", "value": 0.68}, {"measurement": "h1.6-N1877S 145756 norm, Mean", "setting": "hNaV1.6 N1877S; -7.38722 LogM", "value": 0.53}, {"measurement": "h1.6-N1877S 145756 norm, Mean", "setting": "hNaV1.6 N1877S; -7.85387 LogM", "value": 0.27}, {"measurement": "h1.6-N1877S 145756 norm, Mean", "setting": "hNaV1.6 N1877S; -8.33 LogM", "value": 0.1}, {"measurement": "h1.6-N1768D 145756 norm, Mean", "setting": "hNaV1.6 N1768D; -5 LogM", "value": 0.9}, {"measurement": "h1.6-N1768D 145756 norm, Mean", "setting": "hNaV1.6 N1768D; -5.47716 LogM", "value": 0.88}, {"measurement": "h1.6-N1768D 145756 norm, Mean", "setting": "hNaV1.6 N1768D; -5.95429 LogM", "value": 0.82}, {"measurement": "h1.6-N1768D 145756 norm, Mean", "setting": "hNaV1.6 N1768D; -6.4318 LogM", "value": 0.74}, {"measurement": "h1.6-N1768D 145756 norm, Mean", "setting": "hNaV1.6 N1768D; -6.91009 LogM", "value": 0.62}, {"measurement": "h1.6-N1768D 145756 norm, Mean", "setting": "hNaV1.6 N1768D; -7.38722 LogM", "value": 0.46}, {"measurement": "h1.6-N1768D 145756 norm, Mean", "setting": "hNaV1.6 N1768D; -7.85387 LogM", "value": 0.18}, {"measurement": "h1.6-N1768D 145756 norm, Mean", "setting": "hNaV1.6 N1768D; -8.33 LogM", "value": 0.03}, {"measurement": "IC50", "setting": "hNaV1.6 T767I", "value": 31, "unit": "nM"}, {"measurement": "h1.6-T767I 145756, Mean", "setting": "hNaV1.6 T767I; -5 LogM", "value": 0.91}, {"measurement": "h1.6-T767I 145756, Mean", "setting": "hNaV1.6 T767I; -5.47716 LogM", "value": 0.92}, {"measurement": "h1.6-T767I 145756, Mean", "setting": "hNaV1.6 T767I; -5.95429 LogM", "value": 0.86}, {"measurement": "h1.6-T767I 145756, Mean", "setting": "hNaV1.6 T767I; -6.4318 LogM", "value": 0.86}, {"measurement": "h1.6-T767I 145756, Mean", "setting": "hNaV1.6 T767I; -6.91009 LogM", "value": 0.75}, {"measurement": "h1.6-T767I 145756, Mean", "setting": "hNaV1.6 T767I; -7.38722 LogM", "value": 0.58}, {"measurement": "h1.6-T767I 145756, Mean", "setting": "hNaV1.6 T767I; -7.85387 LogM", "value": 0.19}, {"measurement": "h1.6-T767I 145756, Mean", "setting": "hNaV1.6 T767I; -8.33 LogM", "value": 0.1}, {"measurement": "IC50", "setting": "hNaV1.6 I1327V", "value": 35, "unit": "nM"}, {"measurement": "h1.6-I1327V 145756, Mean", "setting": "hNaV1.6 I1327V; -5 LogM", "value": 0.91}, {"measurement": "h1.6-I1327V 145756, Mean", "setting": "hNaV1.6 I1327V; -5.47716 LogM", "value": 0.88}, {"measurement": "h1.6-I1327V 145756, Mean", "setting": "hNaV1.6 I1327V; -5.95429 LogM", "value": 0.9}, {"measurement": "h1.6-I1327V 145756, Mean", "setting": "hNaV1.6 I1327V; -6.4318 LogM", "value": 0.82}, {"measurement": "h1.6-I1327V 145756, Mean", "setting": "hNaV1.6 I1327V; -6.91009 LogM", "value": 0.67}, {"measurement": "h1.6-I1327V 145756, Mean", "setting": "hNaV1.6 I1327V; -7.38722 LogM", "value": 0.56}, {"measurement": "h1.6-I1327V 145756, Mean", "setting": "hNaV1.6 I1327V; -7.85387 LogM", "value": 0.29}, {"measurement": "h1.6-I1327V 145756, Mean", "setting": "hNaV1.6 I1327V; -8.33 LogM", "value": 0.13}, {"measurement": "h1.6-R1872W 145756, Mean", "setting": "hNaV1.6 R1872W; -5 LogM", "value": 0.9}, {"measurement": "h1.6-R1872W 145756, Mean", "setting": "hNaV1.6 R1872W; -6 LogM", "value": 0.87}, {"measurement": "h1.6-R1872W 145756, Mean", "setting": "hNaV1.6 R1872W; -7 LogM", "value": 0.55}, {"measurement": "h1.6-R1872W 145756, Mean", "setting": "hNaV1.6 R1872W; -8 LogM", "value": 0.13}, {"measurement": "h1.6-R1617Q 145756, Mean", "setting": "hNaV1.6 R1617Q; -5 LogM", "value": 0.85}, {"measurement": "h1.6-R1617Q 145756, Mean", "setting": "hNaV1.6 R1617Q; -6 LogM", "value": 0.64}, {"measurement": "h1.6-R1617Q 145756, Mean", "setting": "hNaV1.6 R1617Q; -7 LogM", "value": 0.24}, {"measurement": "h1.6-R1617Q 145756, Mean", "setting": "hNaV1.6 R1617Q; -8 LogM", "value": 0.07}, {"measurement": "IC50", "setting": "hNaV1.6 N1466K", "value": 39, "unit": "nM"}, {"measurement": "h1.6 -N1466K 145756, Mean", "setting": "hNaV1.6 N1466K; -5 LogM", "value": 0.92}, {"measurement": "h1.6 -N1466K 145756, Mean", "setting": "hNaV1.6 N1466K; -5.47716 LogM", "value": 0.94}, {"measurement": "h1.6 -N1466K 145756, Mean", "setting": "hNaV1.6 N1466K; -5.95429 LogM", "value": 0.81}]}
